Test results published in patent USRE46698E1, “Use of cyclohexanol derivatives as antimicrobial active compounds” (MERCK PATENT GMBH, priority 2011, dated 2018).

Columns and labels:
Candida albicans = assay: Antimicrobial action, microbe count (Example 6); type: cell-based; details: conc. 0.5%; for Δlog: t24 h
Procedure: (§1) For sample preparation, the substances being investigated are each dissolved or homogeneously dispersed in an amount of 1.0% in a water/ethanol mixture (12% of ethanol) (=sample). A bacteria suspension of S. epidermidis (ATCC 12228) having an optical density of 1.0 in CASO broth (Merck 1.05459) is diluted 1:10000 with CASO broth. 500 μl of sample are added to 500 μl of bacteria suspension, and the mixture is incubated at 35° C. for 24 h. After the incubation, the test batches are diluted to −6 in 10 unit steps, and 0.1 ml of each is plated-out on CASO agar (Merck 1.05458) and incubated at 35° C. for 24 h.
(§2) In order to determine the initial microbe count, 0.1 ml of the bacteria suspension used are plated-out on CASO agar (Merck 1.05458) and incubated at 35° C. for 24 h.
(§3) The colonies are subsequently counted, and the microbe count per ml is determined compared with the negative control (12% of ethanol in water).
(§4) The procedure corresponds to that described in Examples 4 and 5 using the microorganisms shown below. The concentrations indicated are the final use concentrations. In order to prepare the stock solution, double the final concentration were prepared in the solvent indicated. This was subsequently diluted 1:2 with the corresponding microbe suspension. In the case of Aspergillus brasiliensis, the microbe count determination was exceptionally carried out after 48 h.

[1] = tested on: S. epidermidis (ATCC 12228); assay: Growth inhibition by optical density, Bioscreen C (Example 3); type: cell-based, Staphylococcus epidermidis; details: 2nd experiment; 1.0% sample in water/ethanol (12% of ethanol) diluted 1 to 2 with bacteria suspension; 37° C.; negative control 0.65
Procedure: For sample preparation, the substances being investigated are each dissolved or homogeneously dispersed in an amount of 1.0% in a water/ethanol mixture (12% of ethanol) and subsequently diluted with bacteria suspension in the ratio 1 to 2. S. epidermidis (ATCC 12228) is pre-incubated under aerobic conditions for 24 h at 35° C. on CASO agar (Merck 1.05458). A bacteria suspension having an optical density (OD) of about 1.0 is subsequently prepared in CASO broth (Merck 1.05459, double-concentrated) and diluted again 1:10 in CASO broth. 150 μl of freshly prepared sample are added to 150 μl of bacteria suspension per well. The optical density is determined over the course of time at 37° C. using a Bioscreen C™ analyser compared with the negative control (=vehicle without test substance). Compared with the negative control, reduced optical densities confirm growth-inhibiting substance actions
(§5) Result as optical density of the bacteria suspension after an exposure time of 20 hours: […]

[2] = Rancimate assay, antioxidative capacity (Example 1); details: 0.1% w/w in soya oil; 120° C.; input of air 201/h
Procedure: The antioxidative capacity of substances I-9, I-10 and I-2 is determined in the so-called Rancimate assay. The comparative substances used are 4-t-butyl-1-cyclohexanol and tocopherol. The positive standard employed is BHT. The measurement parameter is the time duration (induction time) of the increase in the conductivity of unstabilised soya oil on exposure to air at elevated temperature. The longer the induction time, the greater the stabilising or antioxidant action. The following boundary conditions were maintained: input of air 201/h; temperature 120° C. and sample concentrations of 0.1% w/w each in soya oil. For each test substance, a relative antioxidation-protection factor is determined, which corresponds to the ratio of the induction times with and without test substance: […]

[3] = Densities and viscosities, Ubbelohde viscometer, to estimate spreadability (Example 10); type: physicochemical; details: 25° C.
Procedure: Measurement of the Dynamic Viscosities in Order to Estimate the Spreadability at 25° C. After measurement of the densities and kinematic viscosities using an Ubbelohde viscometer, the following dynamic viscosities arise: Since spreadabilities and viscosities of cosmetic emollients correlate well, good spreadabilities can be concluded from the viscosities determined.

[4] = tested on: S. epidermidis (ATCC 12228); assay: Microbe count determination, bacteriostatic or bactericidal action (Example 5); type: cell-based, Staphylococcus epidermidis; details: 24 h at 35° C.
Procedure: as §1, §2, §3

P. acnes (ATCC 6919) = assay: Growth inhibition by optical density, Bioscreen C (Example 4); type: cell-based, Propionibacterium acnes; details: 1.0% sample in water/ethanol (12% of ethanol) diluted 1 to 2 with bacteria suspension; 37° C.; negative control 1.0
Procedure: (§6) For sample preparation, the substances being investigated are each dissolved or homogeneously dispersed in an amount of 1.0% in a water/ethanol mixture (12% of ethanol) and subsequently diluted with bacteria suspension in the ratio 1 to 2. P. acnes (ATCC 6919) is pre-incubated under anaerobic conditions for 48 h at 35° C. on RMC agar (Merck 1.05410). A bacteria suspension having an optical density (OD) of about 1.5 is subsequently prepared in RMC broth (Merck 1.05411, double-concentrated). 150 μl of freshly prepared sample and 100 μl of paraffin are added to 150 μl of bacteria suspension per well. The optical density is determined over the course of time at 37° C. using a Bioscreen C™ analyser compared with the negative control (=vehicle without test substance). Compared with the negative control, reduced optical densities confirm growth-inhibiting substance actions.
as §5

Echerichia coli = assay: Antimicrobial action, microbe count (Example 6); type: cell-based; details: conc. 0.5%, H2O (12% of ethanol), count t0 4.6 × 10^4
Procedure: as §6, §1, §2, §3, §4

Staphylococcus aureus = assay: Antimicrobial action, microbe count (Example 6); type: cell-based; details: conc. 0.5%, H2O (12% of ethanol), count t0 4.2 × 10^4
Procedure: as §6, §1, §2, §3, §4

[5] = tested on: Staphylococcus epidermidis; assay: Antimicrobial action, microbe count (Example 6); type: cell-based; details: conc. 0.5%, H2O (12% of ethanol), count t0 3.4 × 10^4
Procedure: as §6, §1, §2, §3, §4

Aspergillus brasiliensis = assay: Antimicrobial action, microbe count (Example 6); type: cell-based; details: conc. 0.5%, H2O (12% of ethanol), count t0 2.0 × 10^4
Procedure: as §6, §1, §2, §3, §4

Salmonella enterica = assay: Antimicrobial action, microbe count (Example 6); type: cell-based; details: conc. 0.5%, H2O (12% of ethanol), count t0 6.0 × 10^4
Procedure: as §6, §1, §2, §3, §4

Propionibacterium acnes = assay: Antimicrobial action, microbe count (Example 6); type: cell-based; details: conc. 0.5%, H2O (12% of ethanol), count t0 2.0 × 10^4
Procedure: as §6, §1, §2, §3, §4

Pseudomonas aeruginosa = assay: Antimicrobial action, microbe count (Example 6); type: cell-based; details: conc. 0.5%, H2O (12% of ethanol), count t0 6.8 × 10^4
Procedure: as §6, §1, §2, §3, §4

Serratia marcescens = assay: Antimicrobial action, microbe count (Example 6); type: cell-based; details: conc. 0.5%, H2O (12% of ethanol), count t0 6.8 × 10^4
Procedure: as §6, §1, §2, §3, §4

Corynebacterium xerosis = assay: Antimicrobial action, microbe count (Example 6); type: cell-based; details: for Δlog: t24 h
Procedure: as §6, §1, §2, §3, §4

[6] = H2O (12% of ethanol), count t0 3.4 × 10^4
[7] = conc. 0.125%, H2O, count t0 1.0 × 10^6
[8] = conc. 0.5%, H2O (12% of ethanol), count t0 3.5 × 10^4

## CCCCC(CC)COC(=O)C1CCCCC1O (centres unmarked) [Substance I-9, 2-hydroxycyclohexanecarboxylic acid 2-ethylhexyl ester]
Candida albicans; [6]
  Microbe count t24 h: 1.5 × 10^1
  Δlog: −3.36
Candida albicans; H2O, count t0 3.8 × 10^5
  Microbe count t24 h: 8.0 × 10^6
  Δlog: +1.32
[1]
  OD20h, optical density of the bacteria suspension after 20 hours: 0.30
[2]
  Antioxidation-protection factor (ratio of the induction times with and without test substance): 1.12
[3]
  Density: 0.9752 g/mL
  Dynamic viscosity (kinematic viscosity × density): 32.2 mPas
[3]; Ubbelohde viscometer
  Kinematic viscosity: 33.0 mm^2/s
[4]; 1.0% sample in 12% ethanol, 500 μl + 500 μl bacteria suspension, initial count 3.8 × 10^4, negative control 5.0 × 10^7
  Final microbe count: 2.0 × 10^3 CFU/ml
[4]; S. epidermidis
  Note: bacteriostatic or bactericidal action: bacteriostatic
P. acnes (ATCC 6919)
  OD20h, optical density of the bacteria suspension after 20 hours: 0.50
Echerichia coli
  Microbe count t24 h: 3.8 × 10^2
Echerichia coli; t24 h
  Δlog: −2.08
Staphylococcus aureus
  Microbe count t24 h: 1.4 × 10^2
Staphylococcus aureus; t24 h
  Δlog: −2.48
[5]
  Microbe count t24 h: 6.0 × 10^3
[5]; t24 h
  Δlog: −0.75
Aspergillus brasiliensis; count after 48 h
  Δlog: −1.40
Aspergillus brasiliensis; count carried out after 48 h
  Microbe count t24 h: 8.0 × 10^2
Salmonella enterica
  Microbe count t24 h: 1.8 × 10^4
Salmonella enterica; t24 h
  Δlog: −0.52
Propionibacterium acnes
  Microbe count t24 h: 8.0 × 10^2
Propionibacterium acnes; t24 h
  Δlog: −1.40
Pseudomonas aeruginosa
  Microbe count t24 h: 9.0 × 10^3
Pseudomonas aeruginosa; t24 h
  Δlog: −0.88
Serratia marcescens
  Microbe count t24 h: 9.0 × 10^3
Serratia marcescens; t24 h
  Δlog: −0.88
Corynebacterium xerosis; [7]
  Microbe count t24 h: 5.0 × 10^6
  Δlog: +0.70
Corynebacterium xerosis; [8]
  Microbe count t24 h: 0
  Δlog: −4.54
